Experiments:
[1] = side effects in the Example 2 patient; assay type: in vivo, human; settings: Example 2, person, oral
Description: Example 2 Mature human ingests 7 to 10 drops of emu oil per day, […].

[2] = subjects with age-related memory decline, 60 days of treatment; cited from earlier work
[3] = rats; cited from earlier work
[4] = humans; cited from earlier work
[5] = multi-infarct dementia patients; cited from earlier work

Row | SMILES | side effects [1] | verbal memory functions [2] | anti-anxiety effects [3] | memory and learning [3] | alcohol-induced memory deficits [4] | attention [5] | consolidation of memory [5] | psychological tests of short-term retrieval, long-term retrieval and long-term storage of memory [5]
1 | CC[C@H](C)C(=O)O[C@H]1C[C@@H](C)C=C2C=C[C@H](C)[C@H](CC[C@@H]3C[C@@H](O)CC(=O)O3)[C@H]21 [Mevocore] | has suffered side effects, including hair loss |  |  |  |  |  |  | 
2 | O=C(O)[C@@H]1CCC(O)=N1 [pyroglutamate, 2-oxo-pyrrolidone carboxylic acid] |  | effective in improving verbal memory functions | has anti-anxiety effects | improves memory and learning | effective | significant increase of attention | statistically significant improvement | improvement

Reference: US6951658B1, “Emu-based compositions for mental well-being and method of use” (Pearson Research & Development Limited, priority 2003, dated 2005)
